The values below come from publication PMC11437215 (Nature Communications, 2024).

The subject of assay [1] is 9B9 T cell (G20-specific). Nature of the assay: Presentation of G20 by blood leukocytes after glucose challenge. In kind it is cell-based, NOD mice.
The test system of assay [2] is 9B9 T cell (G20-specific). Nature of the assay: Presentation of G20 by dispersed islet cells. To be noted: chloroquine vs PBS; B:9–23 10 µM.
The test system of assay [3] is crinosomes in pancreatic β cells. Nature of the assay: Electron microscopy count of crinophagic granules. In kind it is in vivo, NOD mice.
The test system of assay [4] is crinosome subcellular fraction of β cells. The assay is described as follows: Crinosome peptidome by mass spectrometry. More on the design: species or system NOD mice.
The subject of assay [5] is insulin epitopes G20 and E21 in crinosome and DCG subcellular fractions. The assay is described as follows: Granule-based antigen presentation assay: crinosome. To be noted: chloroquine vs PBS. In kind it is cell-based, NOD mice.
For assay [6], the system named is autoimmune diabetes in female NOD mice. The assay is described as follows: Diabetes development. The following applies: chloroquine group, all PBS-treated mice became diabetic.
Assay [7] deals with tetramer-binding CD4+ T cells. The assay is described as follows: Flow cytometry of FOXP3 and CD44 in tetramer-binding CD4+ T cells. To be noted: NOD mice (Fig. 6b). In kind it is cell-based, NOD and NOD.Ins2−/− mice.
Assay [8] deals with tetramer-binding CD4+ T cells. Nature of the assay: Flow cytometry of anergy markers CD73 and FR4 in tetramer-binding CD4+ T cells. In kind it is cell-based, NOD and NOD.Ins2−/− mice. The following applies: SLOs (Supplementary Fig. 9a). In general terms: In flow cytometry, cells or beads pass a laser one at a time.
The subject of assay [9] is CD4+ T cell clones BDC2.5 and BDC6.9. To be noted: cited from earlier work.
For assay [10], the system named is 9B9 (G20-specific) and IIT-3 (E21-specific) CD4+ T cell hybridomas. In kind it is cell-based, mouse. The following applies: C3.g7 APC pulsed with antigen; IL-2 (Supplementary Fig. 1a, b).
The test system of assay [11] is I-A^g7. The following applies: Q-to-E conversion; cited from earlier work.
Assay [12] relates to popliteal lymph node T cells (IFNγ, IL-2). Nature of the assay: ELISPOT recall after peptide immunization. The following applies: immunized with B:9–23 (Fig. 7c).
The test system of assay [13] is CD4+ T cells in SLOs. The assay is described as follows: Quantification of tetramer-binding CD4+ T cells in SLOs. In kind it is cell-based. The following applies: SLOs of 6–8-week-old female NOD mice.
The subject of assay [14] is 9B9, IIT-3, CP1- and CP2-specific CD4+ T cell hybridomas. In kind it is cell-based, NOD and NOD.B16A mice. To be noted: 8 to 10-week-old female NOD mice.
Assay [15] shares this test system. In kind it is cell-based, NOD and NOD.B16A mice. To be noted: mTECs from NOD or NOD.B16A mice.
For assay [16], the system named is type 1 diabetes progression. The following applies: autoantibody-positive (stage 1) T1D patients; cited from earlier work.

In the case of `CCN(CC)CCCC(C)Nc1ccnc2cc(Cl)ccc12` (centres unmarked) [Chloroquine, chloroquine], in assay [1] (chloroquine vs PBS, B:9–23 10 µM), the “presentation of G20 by blood leukocytes during pulse with exogenous B:9–23” value is “without affecting”. Also, the “duration of the effect in inhibiting G20 presentation” value in assay [1] (preliminary experiments) was “about three days”. Besides, the “G20 presentation by dispersed islet cells pulsed with exogenous B:9–23 peptide” value in [2] is “no difference”. Moreover, the “change of crinosome-like vesicles in β cells” value in assay [3] (male and female NOD mice, short-term chloroquine vs PBS) is on record as “reduced by half”. For the same molecule, the “diminishing of crinophagic granules and associated peptide production” value in assay [3] (young NOD mice (discussion summary)) is reported as “about 50%”. Moreover, in assay [4] (chloroquine vs PBS), the “overall HIP abundance in crinosomes” value is recorded as “significant decrease” and the “relative abundance of deamidated insulin C-peptides in the crinosome peptidome” value is given as “significant reduction”. In addition, in [4] (chloroquine vs PBS, 1.2 × 10^6 β cells per condition), the “number of peptides in the crinosome peptidome” value is given as “significant reduction”. Also, in assay [4] (mice given chloroquine, ten HIPs in PBS control), the “HIPs identified in crinosomes” value is “only one HIP”. In addition, in [4] (peptide-spectra matches, chloroquine vs PBS), the “PTMs in the crinosome peptidome (methionine oxidation, deamidation, dehydration, phosphorylation, formylation)” value was “reduced”. Also, in assay [5], the “effect on presentation of both epitopes in DCGs” value was “did not influence”. Moreover, the “reduction in the presentation level of both G20 and E21 in the crinosome fraction” value in assay [5] (male and female NOD mice) is ~ 50%. The “mice remaining diabetes free by 35 weeks of age” value in [6] is on record as “about 33%”.
In the case of VEALYLVCG [G20], the “FOXP3 phenotype of tetramer-binding CD4+ single-positive thymocytes” value in assay [7] was “mostly FOXP3^− conventional T cells”. Moreover, the “expression of CD73 and FR4 in the FOXP3−CD44hi subset of tetramer-binding T cells” value (from here on “expression of CD73 and FR4”) in assay [8] was “much less expression of CD73 and FR4”.
For the molecule LQTLAL-NAARD [6.9HIP], the “expression of CD73 and FR4” value in assay [8] is “much less expression of CD73 and FR4”. Moreover, the “agonist activity on CD4+ T cell clones BDC2.5 and BDC6.9” value in [9] was “strong agonists”.
As to TEGVEALYLVCGGGS [Syn-G20], the “responses of the 9B9 (G20-specific) and IIT-3 (E21-specific) hybridomas” value (“responses of the 9B9” for short) in [10] is “exclusively reacted to their corresponding epitopes”.
GDLQTLALEVARE [CP1d]: the “binding affinity to I-A^g7 relative to native CP1” value in assay [11] is on record as “enhanced the binding affinity”.
Consider TEGEALYLVCGEGGS [Syn-E21], for which, in assay [10], the “responses of the 9B9” value is on record as “exclusively reacted to their corresponding epitopes”. Also, in assay [12], the “T cell responses upon recall in NOD.Ins2−/− mice” value is given as “significantly enhanced” and the “T cell responses upon recall in WT NOD mice” value was “minimal”.
Turning to ILSVHVATAASQDS [ZnT8], the “tetramer-binding cells per million CD4+ T cells” value in assay [13] was “less than 5 per million CD4^+ T cells”.
Still for that read-out and setting: with TQSPLLKRQLTSFIEKGQE [DBP] the entry was “less than 5 per million CD4^+ T cells”.
For the molecule insulin, the “presentation of E21 and G20 by dispersed islets pulsed with antigen” value in assay [14] is reported as “only presentation of E21, but not G20, was enhanced”. Besides, the “presentation of E21 and G20 by mTECs pulsed with antigen” value in assay [15] is on record as “strong presentation of E21, whereas presentation of G20 was minimal”. Also, the “responses of the 9B9” value in assay [10] is listed as “Only the IIT-3 but not the 9B9 T cell responded”. For the same molecule, in assay [12], the “T cell responses upon recall in NOD.Ins2−/− mice” value is listed as “significantly enhanced” and the “T cell responses upon recall in WT NOD mice” value was “minimal”.
For the molecule LQTLAL-WSRMD [2.5HIP], the “expression of CD73 and FR4” value in [8] is “much less expression of CD73 and FR4”. Further, the “agonist activity on CD4+ T cell clones BDC2.5 and BDC6.9” value in assay [9] is “strong agonists”.
On to EALYLVCGE [E21], for which, in assay [7], the “FOXP3 phenotype of tetramer-binding CD4+ single-positive thymocytes” value is reported as “majority”. Moreover, the “expression of CD73 and FR4” value in [8] is “high expression of both CD73 and FR4”.
Take `CCN(CCO)CCCC(C)Nc1ccnc2cc(Cl)ccc12` (centres unmarked) [hydroxychloroquine]: in assay [16], the “autoantibody acquisition and titers of anti-insulin and anti-GAD antibodies” value is recorded as “reduced”; the “progression to stage 2 T1D” value is recorded as “did not delay”.
